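In this assay, cells in 96-well plates receive the compound at five concentrations for 48 hours. Endpoints are linearly interpolated between the surrounding concentrations. GI50 = concentration required for 50% inhibition of growth. The concentration for full growth arrest is given as TGI.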
How the values were obtained:
Assay in all cases: DTP human tumour cell line panel, 48 h
[1] = tested on: HT29 colon
[2] = tested on: SNB-75 CNS
[3] = tested on: SK-MEL-2 melanoma
[4] = tested on: KM12 colon
[5] = tested on: ACHN renal
[6] = tested on: HOP-92 NSCLC
[7] = tested on: BT-549 breast
[8] = tested on: NCI/ADR-RES ovarian
[9] = tested on: NCI-H522 lung
[10] = tested on: SK-OV-3 ovarian
[11] = tested on: HCT-15 colon
[12] = tested on: RXF 393 renal
[13] = tested on: OVCAR-8 ovarian
[14] = tested on: U251 CNS
[15] = tested on: SNB-19 CNS
[16] = tested on: MDA-MB-231 breast
[17] = tested on: M14 melanoma
[18] = tested on: NCI-H460 lung
[19] = tested on: 786-0 renal
[20] = tested on: OVCAR-3 ovarian
[21] = tested on: SN12C renal
[22] = tested on: UACC-257 melanoma
[23] = tested on: NCI-H226 lung
[24] = tested on: SF-539 CNS
[25] = tested on: SR leukemia
[26] = tested on: LOX IMVI melanoma
[27] = tested on: DU-145 prostate
[28] = tested on: NCI-H23 lung
[29] = tested on: IGROV1 ovarian
[30] = tested on: K-562 leukemia
[31] = tested on: A498 renal
[32] = tested on: HS 578T breast
[33] = tested on: HCC-2998 colon
[34] = tested on: SF-295 CNS
[35] = tested on: TK-10 renal
[36] = tested on: SF-268 CNS
[37] = tested on: A549 NSCLC
[38] = tested on: T-47D breast
[39] = tested on: OVCAR-5 ovarian
[40] = tested on: HL-60(TB) leukemia
[41] = tested on: UACC-62 melanoma
[42] = tested on: OVCAR-4 ovarian
[43] = tested on: MCF7 breast
[44] = tested on: MDA-MB-435
[45] = tested on: SK-MEL-28 melanoma
[46] = tested on: MALME-3M melanoma
[47] = tested on: PC-3 prostate
[48] = tested on: CAKI-1 renal
[49] = tested on: HCT-116 colon
[50] = tested on: CCRF-CEM leukemia
[51] = tested on: RPMI-8226 leukemia
[52] = tested on: COLO 205 colon
[53] = tested on: SW-620 colon
[54] = tested on: HOP-62 NSCLC
[55] = tested on: SK-MEL-5 melanoma
[56] = tested on: UO-31 renal
[57] = tested on: EKVX NSCLC

## O=C(Nc1ccc(Oc2ccc(Nc3nc4ccccc4s3)cc2)cc1)Nc1ccc(Cl)c(C(F)(F)F)c1
[1]
  GI50: 1720 nM
  TGI: 3.23 µM
[2]
  GI50: 1410 nM
  TGI: 5.27 µM
[3]
  GI50: 2120 nM
  TGI: 4.35 µM
[4]
  GI50: 1510 nM
  TGI: 3.34 µM
[5]
  GI50: 1510 nM
  TGI: 5.49 µM
[6]
  GI50: 730 nM
  TGI: 3.28 µM
[7]
  GI50: 1540 nM
  TGI: 3.05 µM
[8]
  GI50: 1800 nM
  TGI: 4.11 µM
[9]
  GI50: 1510 nM
  TGI: 3.39 µM
[10]
  GI50: 1860 nM
  TGI: 4.42 µM
[11]
  GI50: 1540 nM
  TGI: 3.44 µM
[12]
  GI50: 1800 nM
  TGI: 4 µM
[13]
  GI50: 2220 nM
  TGI: 7.29 µM
[14]
  GI50: 1610 nM
  TGI: 3.55 µM
[15]
  GI50: 1710 nM
  TGI: 3.62 µM
[16]
  GI50: 1370 nM
  TGI: 2860 nM
[17]
  GI50: 1460 nM
  TGI: 3.13 µM
[18]
  GI50: 1740 nM
  TGI: 4.34 µM
[19]
  GI50: 1790 nM
  TGI: 4.63 µM
[20]
  GI50: 1540 nM
  TGI: 3.98 µM
[21]
  GI50: 1420 nM
  TGI: 3.03 µM
[22]
  GI50: 1830 nM
  TGI: 6.09 µM
[23]
  GI50: 1390 nM
  TGI: 3.33 µM
[24]
  GI50: 1640 nM
  TGI: 3.75 µM
[25]
  GI50: 1320 nM
  TGI: 5.81 µM
[26]
  GI50: 1420 nM
  TGI: 2760 nM
[27]
  GI50: 2470 nM
  TGI: 7.22 µM
[28]
  GI50: 1060 nM
  TGI: 2770 nM
[29]
  GI50: 1670 nM
  TGI: 3.62 µM
[30]
  GI50: 2510 nM
  TGI: 14.2 µM
[31]
  GI50: 1460 nM
  TGI: 3.16 µM
[32]
  GI50: 2070 nM
  TGI: 7.55 µM
[33]
  GI50: 1870 nM
  TGI: 3.91 µM
[34]
  GI50: 1660 nM
  TGI: 3.41 µM
[35]
  GI50: 2300 nM
  TGI: 5.35 µM
[36]
  GI50: 1940 nM
  TGI: 4.74 µM
[37]
  GI50: 1970 nM
  TGI: 6.26 µM
[38]
  GI50: 1210 nM
  TGI: 3.96 µM
[39]
  GI50: 1640 nM
  TGI: 3.61 µM
[40]
  GI50: 2210 nM
  TGI: 5.59 µM
[41]
  GI50: 1230 nM
  TGI: 2570 nM
[42]
  GI50: 1310 nM
  TGI: 3.16 µM
[43]
  GI50: 1350 nM
  TGI: 3.7 µM
[44]
  GI50: 1480 nM
  TGI: 3 µM
[45]
  GI50: 1570 nM
  TGI: 3.2 µM
[46]
  GI50: 1800 nM
  TGI: 3.79 µM
[47]
  GI50: 1070 nM
  TGI: 2790 nM
[48]
  GI50: 2050 nM
  TGI: 7.98 µM
[49]
  GI50: 1310 nM
  TGI: 2610 nM
[50]
  GI50: 1760 nM
  TGI: > 100 µM
[51]
  GI50: 1110 nM
  TGI: 4.34 µM
[52]
  GI50: 1640 nM
  TGI: 3.25 µM
[53]
  GI50: 1750 nM
  TGI: 3.54 µM
[54]
  GI50: 1820 nM
  TGI: 4.03 µM
[55]
  GI50: 1450 nM
  TGI: 2790 nM
[56]
  GI50: 1220 nM
  TGI: 2820 nM
[57]
  GI50: 1620 nM
  TGI: 5.45 µM

— PubChem BioAssay (NCI)
